# Laboratory results: US9765063B2, “Amido compounds as RORγt modulators and uses thereof” (New York University, priority 2011, dated 2017)
# Entries after “also recorded” stand apart in the source; their conditions may differ. Where two headings read alike, the source gives them in different places.
# How the values were obtained:
# Assay type in all cases: cell-based
# [1] = target: T1, RORγt (Mus musculus, UniProt P51450); test: RORγt S2 cell reporter assay (Gal4-RORγt fusion, UAS-luciferase)
# T1 construct: expressed in transfected cells; the other entry of the earlier key: GAL4 (P04386, Regulatory protein GAL4)
# T1 sequence (P51450 with tags, fused parts or gaps): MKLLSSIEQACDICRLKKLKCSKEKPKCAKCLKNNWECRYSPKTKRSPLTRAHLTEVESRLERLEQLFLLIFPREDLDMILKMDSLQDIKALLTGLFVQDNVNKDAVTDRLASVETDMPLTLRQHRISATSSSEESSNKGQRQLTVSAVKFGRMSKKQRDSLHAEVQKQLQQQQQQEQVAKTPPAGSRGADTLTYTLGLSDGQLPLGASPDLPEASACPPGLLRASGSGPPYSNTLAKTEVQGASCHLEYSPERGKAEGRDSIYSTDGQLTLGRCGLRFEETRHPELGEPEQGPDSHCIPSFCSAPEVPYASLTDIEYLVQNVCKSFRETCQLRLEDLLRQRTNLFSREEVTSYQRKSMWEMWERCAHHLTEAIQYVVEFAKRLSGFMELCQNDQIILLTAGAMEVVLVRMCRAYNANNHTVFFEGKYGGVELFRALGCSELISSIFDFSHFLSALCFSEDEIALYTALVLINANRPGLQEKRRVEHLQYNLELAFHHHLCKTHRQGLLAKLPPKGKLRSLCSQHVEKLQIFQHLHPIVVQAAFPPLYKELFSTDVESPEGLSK
# Source text: Methods: The Drosophila S2 cell line was originally purchased from Invitrogen and was maintained in Schneider's medium supplemented with 10% heat-inactivated bovine fetal calf serum and antibiotics (Invitrogen). […] The resulting chimeric gene was subcloned into the copper inducible pMT/V5-His A vector (available from Invitrogen).
# Renilla luciferase construct under the polIII promoter was obtained from Dr. Dasgupta's laboratory (NYU medical center). In order to generate stable cell lines, cells were co-transfected with pMT-G4DBD-RORγt, pMT-G4DBD-RORα, pMT-G4DBD-DHR3, or pMT-G4DBDVP16 and pHygro plasmids (Invitrogen) and screened for resistant colonies in the presence of hygromycin (0.3 mg/mL). […] Using similar methods, stable clones with genomic integration of the luciferase reporters and other reporters were generated such as pMT-RORα_luc, pMT-DHR3_luc, or pMT-VP16_luc.
# Methods: 600 G4DBD-RORγ/γt-luc reporter (#25) or G4DBD-VP16-luc reporter cells were distributed into each well of 1,536-well white bottom plates in 4 μl S2 cell culture volume containing hygromicin (300 μg/ml) and puromycin (2 μg/ml). […] After one-hour incubation, 1 of culture medium solution containing copper sulfate (to final 0.7 mM) and 10 μM RORγ/γt antagonists were added to each well. After 20-hour incubation at ambient temperature, 1.5 μl firefly luciferase detection mix was added and the luciferase activities were measured in 10 min. ViewLux luminometers were used for measuring luciferase signal.
# A cell-based reporter assay was used to detect RORγt-mediated activity. This assay, called RORγt employed Drosophila Schneider cells that were stably transfected with two vectors: a gene expressing a fusion of the Gal4 DNA binding domain and RORγt transactivation domain under the control of the metallothionine promoter and a Photinus luciferase reporter regulated by the Gal4 binding site enhancer, UAS. […] Cells (600/well) were dispensed into white solid 1536-well plates (Greiner) using a solenoid-based dispenser. Following transfer of […] compound or DMSO vehicle by a pin tool, the plates were incubated 1 hr at ambient temperature, and 1 uL/well copper sulfate (700 uM final concentration) was added. The plates were centrifuged 15 s at 1000 RPM and incubated 20 hr at ambient temperature. After addition of 1.5 uL Photinus luciferase detection reagent, the plates were incubated 10 min at ambient temperature and then read by a ViewLux (Perkin Elmer) to detect luminescence. […] Efficacy is expressed as % of the maximal response of control inhibitor (Digoxin), set at 100%.
# [2] = test system: mouse Th17 cell differentiation; test: Th17 assay: mouse Th17 polarization (IL-17a producing cells, FACS); conditions: for IC50: naive mouse CD4 T cells, TGFβ and IL6, compounds added Day 1, analyzed Day 4, read-out: Th 17 IC50
# Method: (§1) Percentage of DMSO treated IL-17a producing cells was set at 100. Naive mouse CD4 T cells (CD25^−, CD62L^+, and CD44^low-int) were sorted and cultured with CD3/CD28 stimulatory antibodies in the presence of TGFβ (0.1 ng/ml) and IL6 (20 ng/ml). Compounds were added on Day 1 and cells were analyzed on Day 4. For intracellular cytokine staining, cells were incubated for 5 h with phorbol ester (50 ng/ml; Sigma), ionomycin (500 ng/ml; Sigma) and GolgiStop (BD). When needed, surfaces were stained by incubation for 15 min on ice with PECy7-conjugated CD4 (BD Biosciences). The Cytofix/Cytoperm buffer set (BD) was used for intracellular staining. Cells were fixed and made permeable for 30 min on ice and were stained for 30 min on ice in permeabilization buffer with Alexa647-conjugated anti-IL17a (eBioscience) and PE-conjugated anti-IFNg (eBioscience). An LSR II (BD Biosciences) and FlowJo software (Tree Star) were used for flow cytometry. RORg IC50 value acquired from the S2 cell reporter assay is listed for comparison.
# as §1, with “With respect to the methodological details pertaining to FIG. 1, naive” for “Percentage of DMSO treated IL-17a producing cells was set at 100. Naive mouse”, “(BD).” for “(BD). When needed, surfaces were stained by incubation for 15 min on ice with PECy7-conjugated CD4 (BD Biosciences).”, “anti-IFNγ” for “anti-IFNg”, “cytometry.” for “cytometry. RORg IC50 value acquired from the S2 cell reporter assay is listed for comparison.”
# [3] = test system: human Th17 cell differentiation; test: Human Th17 cell differentiation (FACS, FIG. 2); conditions: FIG. 2, FACS, 0.5 μM
# Method: • 1) S2 cell reporter system: Identified hits from HTS are further screened and their specificity confirmed by testing against RORγ-luc, VP16-luc, RORα-luc, and DHR3-luc reporter S2 cell lines. Compounds either having no activity on VP16, RORα, and DHR3 or having ten times higher IC50 values on such reporters are selected for further tests. • 2) Cytokine induced mouse Th17 cells differentiation. Effects on mouse endogenous RORγt in a relevant physiological setting were determined by testing compounds in the Th17 cell differentiation assay. Compounds having RORγt inhibitory activity are predicted to suppress Th17 cell differentiation. Th1 or regulatory T cell differentiation was used as a counter-screen method to select specific compounds that only affect Th17 cell differentiation without having pleiotrophic effects on general T cell proliferation or cytokine production. • 3) ROR dependent Th17 cell differentiation. Compounds were further tested, by examining their effects on T cells expressing RORα or RORγ. […] Compounds affecting IL17a production or ROR regulatory pathways, however, are expected to inhibit both. • 4) Human Th17 cell differentiation. Compound effects on human RORγt will be tested by treating human cord blood CD4 T cells with select compounds to determine if such compounds alter differentiation into Th17 lineages.
# (§2) For Th1 differentiation, IL12 (10 ng/ml) and IL2 (100 U/ml) were added to naive CD4 T cell cultures instead of TGFβ and IL6.
# [4] = test system: human Th1 cell differentiation; test: Human Th1 cell differentiation, IFNγ production (counter-screen, FIG. 2); conditions: FIG. 2, FACS, 0.5 μM, naive CD4 T cells, IL12 and IL2
# Method: as §2
# [5] = test system: RORγt; test: RORγt overexpression dependent IL17a production in human CD4 T cells (FIG. 3); conditions: FIG. 3, FACS, 0.5 μM
# Method: (§3) Briefly, CD3+ CD4+ CD45RA+ naive human T cells were isolated from peripheral blood derived from healthy donors. The naive T cells were cultured in XVIVO-20 (Lonza) medium for 7 days in the presence of IL2 and stimulatory CD3 and CD28 antibodies. Cells were infected with lentivirus encoding human RORα or RORγ and compound or DMSO was added on day 2. FACS plot analysis is shown after gating on GFP expressing (virus infected) cells.
# [6] = test system: RORα; test: RORα overexpression dependent IL17a production in human CD4 T cells (FIG. 3); conditions: FIG. 3, FACS, 0.5 μM; listed as NCGC00238427
# Method: as §3
Compound,"Emax ([1]; Table 1, % of the maximal response of control inhibitor (Digoxin), set at 100%, read-out: Efficacy (%))","IC50 ([1]; Table 1, Drosophila S2 cells, luciferase reporter, read-out: IC50)","IC50 ([1]; Table 2, from the S2 cell reporter assay, listed for comparison, read-out: S2 cell RORg IC50)",IC50 [2],human Th17 cell differentiation [3],"Th1 cell differentiation, as measured by IFNγ production [4]",RORγt overexpression dependent IL17a production in human CD4 T cells [5],"mouse Th17 cell differentiation, as measured by IL17a production ([2]; FIG. 1, FACS, at the indicated concentrations)",human Th17 cell differentiation ([3]; listed as NCGC00238427),RORα overexpression dependent IL17a production in human CD4 T cells [6],"Th1 cell differentiation, as measured by IFNγ production ([4]; listed as NCGC00238427)",RORγt overexpression dependent IL17a production in human CD4 T cells ([5]; listed as NCGC00238427)
"COc1cc(O)c(C(CC(=O)N2CC(C)CC(C)C2)c2cccc(C(=O)O)c2)c(OC)c1 (stereo not shown) [Compound 101, 3-(3-(3,5-Dimethylpiperidin-1-yl)-1-(2-hydroxy-4,6-dimethoxyphenyl)-3-oxopropyl)benzoic acid]",88.7%,1 to 10 µM,1 to 10 µM,> 20 µM,neither of which exhibits the ability to suppress human Th17 or Th1 cell differentiation,neither of which exhibits the ability to suppress human Th17 or Th1 cell differentiation,neither of which exhibits the ability to inhibit RORγt dependent human Th17 cell differentiation,,,,,
"COc1cc(O)c(C(CC(=O)N2CC(C)CC(C)C2)c2ccc3c(c2)OCO3)c(OC)c1 (stereo not shown) [RC1, reference compound]",,,,1 to 10 µM,,,,suppress mouse Th17 cell differentiation,selectively suppress human Th17; also recorded: selectively suppresses human Th17 cell differentiation,unaffected,does not inhibit Th1 cell differentiation,selectively inhibit RORγt dependent; also recorded: selectively inhibits RORγt overexpression dependent IL17a production
